Patent US10328075B2, “Method of treatment and compounds for use therein” (Baker Heart and Diabetes Institute, priority 2015, dated 2019)

System: adult mouse cardiac fibroblasts
Test: TGF-β stimulation of adult mouse cardiac fibroblasts, CTGF and IL-1β expression
Format: cell-based
Settings: 10 μM, 24 h TGF-β
Method: Isolation and culture of primary rat cardiomyocytes and mouse cardiac fibroblasts: All materials used for cell isolation were of tissue culture grade. Isolation of primary neonatal rat cardiac cardiomyocytes (NRCM) and adult mouse cardiac fibroblasts (AMCF) was performed by serial enzymatic digestion, as previously described (Irvine et al 2012 & Irvine et al. 3) NRCM were plated onto either 12-well tissue culture plates (for simulated ischemia-reperfusion, via hypoxia-reoxygenation, H-R) or 60 mm tissue culture dishes (for gene expression) at a density of 1.3×10^5 cells/cm^2, in the presence of 1% 5-bromo-2′-deoxyuridine. AMCF (passage #3) were seeded onto 60 mm tissue culture dishes at 9.5×10^4 cells/cm^2 and allowed to grow to 80% confluence prior to study. […] At the end of hypoxia, Kreb's buffer was replaced with fresh, sterile-filtered Kreb's buffer, in the presence or absence of FPR agonists Cmpd17b, Cmpd43 (both 1 μM or vehicle, and NRCM were subjected to 48 h reoxygenation at 37° C. At the end of 48 h reoxygenation, NRCM supernatant was collected for assessment of cardiomyocyte injury. Cardiomyocyte release of cTnI was determined using a commercially available, high-sensitivity rat cTnI ELISA kit (Life Diagnostic Inc.) as per the manufacturer's instructions. Separate NRVM on 60 mm dishes were incubated for 48 h at 37° C. in serum-free DMEM, in the presence or absence of FPR agonists Cmpd17b, Cmpd43 (both 1 μM) or vehicle. At the end of 48 h, RNA was extracted and real-time PCR performed (as described previously (Huynh et al. 2012)), to determine the relative gene expression of rat Fprs (rFpr1, rFpr2 and rFpr3, expressed as the threshold cycle number Ct subtracted from the maximum cycle number utilized, 40). […]
Cardiomyocytes injury responses in vitro: Neonatal rat cardiomyocytes and adult mouse cardiofibroblasts were isolated and cultured as described (online Supplement). […] Cardiomyocyte injury was assessed by measurement of cardiac cTnI in cardiomyocyte supernatant. […]

| Structure (SMILES) | Pro-fibrotic CTGF response to TGF-β in cardiofibroblasts | TGF-β-induced pro-inflammatory IL-1β response in cardiofibroblasts |
| --- | --- | --- |
| CC(C)C1C(NC(=O)Nc2ccc(Cl)cc2)C(=O)N(c2ccccc2)N1C (stereo not drawn) [BIDI-002] | remained significant | tended to persist |
| COc1cccc(Cc2cc(C)nn(C(C)C(=O)Nc3ccc(Br)cc3)c2=O)c1 (stereo not drawn) [BIDI-001, N-(4-bromophenyl)-2-[5-(3-methoxybenzyl)-3-methyl-6-oxo-6H-pyridazin-1-yl]-propionamide] |  | not |
